PubChem BioAssay (NCI)
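Interpolation was linear, between the two tested concentrations surrounding the appropriate level; five concentrations were tested over 48 hours in 96-well plates. GI50: concentration for 50% inhibition of growth. Definition used: TGI = concentration required for complete inhibition of growth.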

Assays:
Experiment in all cases: NCI-60 cell line screen, 48 h
786-0 renal = test system: 786-0 renal
HCC-2998 colon = test system: HCC-2998 colon
HOP-62 NSCLC = test system: HOP-62 NSCLC
HT29 colon = test system: HT29 colon
MALME-3M melanoma = test system: MALME-3M melanoma
MOLT-4 leukemia = test system: MOLT-4 leukemia
NCI-H522 lung = test system: NCI-H522 lung
UACC-257 melanoma = test system: UACC-257 melanoma
UACC-62 melanoma = test system: UACC-62 melanoma
UO-31 renal = test system: UO-31 renal

Row | SMILES | GI50 (786-0 renal) [µM] | TGI (786-0 renal) [µM] | GI50 (HCC-2998 colon) [µM] | TGI (HCC-2998 colon) [µM] | GI50 (HOP-62 NSCLC) [µM] | TGI (HOP-62 NSCLC) [µM] | GI50 (HT29 colon) [µM] | TGI (HT29 colon) [µM] | GI50 (MALME-3M melanoma) [µM] | TGI (MALME-3M melanoma) [µM] | GI50 (MOLT-4 leukemia) [µM] | TGI (MOLT-4 leukemia) [µM] | GI50 (NCI-H522 lung) [µM] | GI50 (UACC-257 melanoma) [µM] | TGI (UACC-257 melanoma) [µM] | GI50 (UACC-62 melanoma) [µM] | TGI (UACC-62 melanoma) [µM] | GI50 (UO-31 renal) [µM] | TGI (UO-31 renal) [µM] | TGI (NCI-H522 lung) [µM]
1 | O=C(/C=C/c1ccco1)Nc1ncc(Cc2cc(Cl)ccc2Cl)s1 | 0.0699 | > 100 | 0.208 | > 100 | 0.0645 | > 76.5 | 0.038 | > 100 | 0.0769 | > 100 | 0.061 | > 100 | 0.0364 | > 100 | > 100 | 0.0487 | > 100 | 0.162 | > 100 | –
2 | CC1=C(\C=C/C(C)=C/C=C/C(C)=C/C=C/C=C(C)\C=C\C=C(C)/C=C/C2=C(C)CCCC2(C)C)C(C)(C)CCC1 | – | > 100 | – | > 100 | – | > 100 | – | > 100 | – | > 100 | – | > 100 | – | – | > 100 | – | > 100 | – | > 100 | > 100
3 | CC1CCc2c(C(=O)Nc3ncc(Cc4cccc([N+](=O)[O-])c4)s3)csc2C1 (stereo unspecified) | 1.18 | > 100 | 1.51 | > 100 | 0.795 | > 100 | 0.38 | > 100 | 1 | > 100 | 0.575 | > 100 | 0.387 | 3.77 | > 100 | 0.373 | > 100 | 0.815 | > 100 | –
4 | O=C(O)CCCCCNCc1cc2cc3c(cc2c2cc(OCc4ccccc4)ccc12)OCO3 | 1.68 | 3.25 | 1.71 | 3.37 | 2 | 5.25 | 1.73 | 3.53 | 1.88 | 3.57 | 2.23 | 24.2 | 1.76 | 3.38 | 10.9 | 1.8 | 3.44 | 4.01 | 13.9 | 3.45
5 | COc1cccc(NC(=O)/C(CS(=O)(=O)CCC(C(C)=O)C(C)=O)=N\NC(C)(C)C)c1 | – | > 100 | – | > 100 | – | > 100 | – | > 100 | – | > 100 | – | > 100 | – | – | > 100 | – | > 100 | – | > 100 | > 100
6 | N#Cc1ccc2c(-c3ccnc(NC4CC4)n3)c(-c3ccc(F)cc3)nn2c1 | > 25 | > 25 | > 25 | > 25 | > 25 | > 25 | > 25 | > 25 | > 25 | > 25 | > 25 | > 25 | > 25 | > 25 | > 25 | > 25 | > 25 | 6.78 | > 25 | > 25
7 | CCNC(=O)O/N=C1\CCC2[C@@H]3CC=C4C[C@@H](OC(=O)NCC)CC[C@]4(C)C3CC[C@]12C (stereo partly specified) | – | 12.8 | – | 17.7 | – | > 100 | – | 13 | – | 1.51 | – | 3.2 | – | – | 3.33 | – | 10.2 | – | 2.62 | 10.6
8 | COc1cc(/C=N/NC(=O)c2cnn3c2NC(c2ccccc2)C3)ccc1OCc1ccccc1 (stereo unspecified) | 1.16 | 4.03 | 2.35 | 24.5 | 1.2 | 4.27 | 0.43 | 4.33 | 0.616 | 3.7 | 1.14 | 12.2 | 0.391 | 1.46 | 11 | 0.679 | 7.14 | 1.28 | 8.87 | 3.9
9 | CC(=O)OC1(C(C)=O)CC2(c3ccccc3)OC1(c1ccccc1)c1ccccc12 (stereo unspecified) | – | > 100 | – | > 100 | – | 61.5 | – | > 100 | – | > 100 | – | 40.1 | – | – | 25.1 | – | 43.8 | – | 80.1 | 29.8
10 | COc1oc(C2C/C(=C/C(C)=C/C(C)=C/C(C)=C/c3ccc([N+](=O)[O-])cc3)CO2)c(C)c(=O)c1C (stereo unspecified) | – | 21.6 | – | > 100 | – | > 100 | – | > 50 | – | 16.2 | – | 10.2 | – | – | 66 | – | > 54.8 | – | 27.5 | 15.5
11 | O=C1c2c(c3c4ccccc4n(CC4CO4)c3c3[nH]c4ccccc4c23)C(=O)N1Cc1ccccc1 (stereo unspecified) | – | > 100 | – | > 100 | – | > 100 | – | > 100 | – | > 100 | – | > 100 | – | – | > 100 | – | > 100 | – | > 100 | > 100
12 | N#Cc1c(N)oc2cc3c(C#N)c(N)oc3cc12 | – | > 100 | – | > 100 | – | > 100 | – | > 100 | – | > 100 | – | > 100 | – | – | > 100 | – | > 100 | – | > 100 | > 100
13 | CC[C@H](C)[C@H](NC(=O)CN(C)C)C(=O)N(C)[C@H](C[C@@H](OC(C)=O)c1nc(C(=O)NC23C4C5C2C2C3C4C52C(=O)OC)cs1)C(C)C (stereo partly specified) | 0.79 | > 33.2 | 0.631 | > 33.2 | – | > 33.2 | 0.133 | > 33.2 | – | > 33.2 | 0.252 | > 33.2 | 0.11 | 4.31 | > 33.2 | 0.19 | > 33.2 | 3.6 | > 33.2 | > 10.8
14 | CCCCCn1sc(=O)n(Cc2ccc(CNC(=O)C(C)c3ccc(CC(C)C)cc3)cc2)c1=O (stereo unspecified) | 0.747 | 2.06 | 1.87 | 3.42 | 1.41 | 3.35 | 0.949 | 2.55 | 1.43 | 2.8 | 0.848 | > 22.5 | 0.162 | 1.48 | 3.02 | 1.3 | 2.62 | 0.561 | 1.99 | 2.11
15 | COc1cc(/C=N\Nc2ccccc2)ccc1OC(=O)c1ccccc1 | 5.09 | > 100 | 3.83 | 17.1 | 8.38 | > 64.7 | 3.72 | 17.7 | 7.55 | > 100 | 1.94 | > 100 | 1.02 | 7.12 | > 100 | 0.311 | 4.47 | 0.792 | > 40.2 | > 76.6
16 | Nc1nc(N)c(CCCCc2ccc([N+](=O)[O-])cc2)c(N)n1 | – | > 100 | – | > 100 | – | > 100 | – | > 100 | – | > 100 | – | > 100 | – | – | > 100 | – | > 100 | – | > 100 | > 100
